Experiments:
Tumor necrosis factor = Tumor necrosis factor (Homo sapiens, UniProt P01375); experiment: Inhibitory activity against tumor necrosis factor alpha (TNF-alpha) production in LPS-stimulated human PBMCs; type: functional
Stromelysin-1 = Stromelysin-1 (Homo sapiens, UniProt P08254); experiment: Inhibitory potency against Matrix metalloprotease-3 (MMP-3)
Interstitial collagenase = target: T1, Interstitial collagenase (Homo sapiens, UniProt P03956); experiment: Inhibitory potency against Matrix metalloprotease-1 (MMP-1)
T1 sequence (P03956 whole entry): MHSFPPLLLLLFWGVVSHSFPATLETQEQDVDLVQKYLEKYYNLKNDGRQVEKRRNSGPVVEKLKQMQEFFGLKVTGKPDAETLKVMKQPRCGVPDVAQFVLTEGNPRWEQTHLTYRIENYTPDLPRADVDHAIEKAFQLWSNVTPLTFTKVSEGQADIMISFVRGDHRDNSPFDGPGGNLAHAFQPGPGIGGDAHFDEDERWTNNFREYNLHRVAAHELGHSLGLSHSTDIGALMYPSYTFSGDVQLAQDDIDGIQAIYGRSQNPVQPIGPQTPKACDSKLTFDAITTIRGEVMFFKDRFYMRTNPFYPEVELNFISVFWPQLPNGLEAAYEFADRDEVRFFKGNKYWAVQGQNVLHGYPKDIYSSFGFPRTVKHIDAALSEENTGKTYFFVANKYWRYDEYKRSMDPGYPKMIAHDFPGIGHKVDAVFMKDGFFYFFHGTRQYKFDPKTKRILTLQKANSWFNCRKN

[1] = target: Disintegrin and metalloproteinase domain-containing protein 17 (Homo sapiens, UniProt P78536); experiment: Inhibitory potency against Tumor necrosis factor alpha converting enzyme (TACE)
[2] = target: 72 kDa type IV collagenase (Homo sapiens, UniProt P08253); experiment: Inhibitory potency against Matrix metalloprotease-2 (MMP-2)
72 kDa type IV collagenase, sequence (P08253 whole entry): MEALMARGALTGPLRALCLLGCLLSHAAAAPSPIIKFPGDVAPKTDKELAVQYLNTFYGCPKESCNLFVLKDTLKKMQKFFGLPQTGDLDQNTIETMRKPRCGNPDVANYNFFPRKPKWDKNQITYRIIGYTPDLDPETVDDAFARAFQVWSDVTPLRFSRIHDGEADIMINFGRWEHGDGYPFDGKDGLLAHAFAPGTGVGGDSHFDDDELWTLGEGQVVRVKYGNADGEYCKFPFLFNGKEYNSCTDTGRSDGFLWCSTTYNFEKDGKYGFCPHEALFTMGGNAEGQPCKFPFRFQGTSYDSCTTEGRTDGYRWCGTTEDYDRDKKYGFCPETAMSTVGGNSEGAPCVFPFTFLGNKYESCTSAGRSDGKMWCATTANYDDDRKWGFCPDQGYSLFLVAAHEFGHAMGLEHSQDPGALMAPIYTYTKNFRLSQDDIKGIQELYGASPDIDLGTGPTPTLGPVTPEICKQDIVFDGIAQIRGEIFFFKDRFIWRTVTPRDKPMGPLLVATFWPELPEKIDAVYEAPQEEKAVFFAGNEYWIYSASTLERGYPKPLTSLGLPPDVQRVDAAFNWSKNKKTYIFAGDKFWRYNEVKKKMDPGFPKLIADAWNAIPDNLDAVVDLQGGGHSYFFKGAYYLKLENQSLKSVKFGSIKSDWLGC

Tumor necrosis factor, sequence (P01375 whole entry): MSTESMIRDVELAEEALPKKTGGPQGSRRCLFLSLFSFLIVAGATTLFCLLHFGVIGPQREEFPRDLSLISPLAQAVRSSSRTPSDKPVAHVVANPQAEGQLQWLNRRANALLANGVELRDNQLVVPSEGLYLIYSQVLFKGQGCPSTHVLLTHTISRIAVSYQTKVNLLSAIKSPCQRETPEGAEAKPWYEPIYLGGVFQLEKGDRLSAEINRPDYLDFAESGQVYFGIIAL
Disintegrin and metalloproteinase domain-containing protein 17, sequence (P78536 whole entry, the tested form may be a part): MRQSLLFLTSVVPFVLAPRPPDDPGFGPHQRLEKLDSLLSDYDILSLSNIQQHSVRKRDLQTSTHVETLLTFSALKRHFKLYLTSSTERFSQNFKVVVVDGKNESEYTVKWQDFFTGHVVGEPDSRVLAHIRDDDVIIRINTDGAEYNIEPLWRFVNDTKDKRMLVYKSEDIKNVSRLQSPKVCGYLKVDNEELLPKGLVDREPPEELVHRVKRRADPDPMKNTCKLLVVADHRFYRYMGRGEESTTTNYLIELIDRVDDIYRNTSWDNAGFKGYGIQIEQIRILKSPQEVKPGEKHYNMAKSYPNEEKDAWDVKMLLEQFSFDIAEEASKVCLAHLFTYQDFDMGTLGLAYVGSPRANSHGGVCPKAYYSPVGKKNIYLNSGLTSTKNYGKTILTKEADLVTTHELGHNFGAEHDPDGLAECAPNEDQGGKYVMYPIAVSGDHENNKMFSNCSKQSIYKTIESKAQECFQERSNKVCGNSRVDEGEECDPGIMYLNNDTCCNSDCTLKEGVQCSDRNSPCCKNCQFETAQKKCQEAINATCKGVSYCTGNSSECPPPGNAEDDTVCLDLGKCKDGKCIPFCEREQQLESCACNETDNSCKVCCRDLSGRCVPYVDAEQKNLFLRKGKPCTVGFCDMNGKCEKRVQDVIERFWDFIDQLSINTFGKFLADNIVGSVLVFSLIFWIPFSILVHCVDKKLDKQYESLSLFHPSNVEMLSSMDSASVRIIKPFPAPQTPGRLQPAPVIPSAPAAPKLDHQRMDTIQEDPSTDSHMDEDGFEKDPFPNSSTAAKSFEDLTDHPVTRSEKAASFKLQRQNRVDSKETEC
Stromelysin-1, sequence (P08254 whole entry): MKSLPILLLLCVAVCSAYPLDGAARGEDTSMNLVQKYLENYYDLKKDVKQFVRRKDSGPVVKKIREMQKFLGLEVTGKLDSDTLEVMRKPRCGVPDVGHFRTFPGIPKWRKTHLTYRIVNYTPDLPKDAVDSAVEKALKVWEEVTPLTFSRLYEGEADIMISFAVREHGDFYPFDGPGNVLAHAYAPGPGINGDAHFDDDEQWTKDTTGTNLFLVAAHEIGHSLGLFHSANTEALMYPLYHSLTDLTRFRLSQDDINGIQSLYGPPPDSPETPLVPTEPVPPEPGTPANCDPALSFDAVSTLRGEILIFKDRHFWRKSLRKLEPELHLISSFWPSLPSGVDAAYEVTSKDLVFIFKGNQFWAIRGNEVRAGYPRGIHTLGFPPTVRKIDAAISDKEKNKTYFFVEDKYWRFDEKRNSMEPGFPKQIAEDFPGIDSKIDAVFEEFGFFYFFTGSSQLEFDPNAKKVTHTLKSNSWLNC

SMILES	Ki (Stromelysin-1) [nM]	Ki (Interstitial collagenase) [nM]	Ki [2] [nM]	IC50 (Tumor necrosis factor) [nM]	Ki [1] [nM]
CNC(=O)[C@@H](NC(=O)[C@H](CC(C)C)[C@H](O)C(=O)NO)C(C)(C)C	–	–	–	1000	–
CNC(=O)[C@@H](NC(=O)[C@H](CC(C)C)[C@H](CO)C(=O)NO)C(C)(C)C	9.8	0.6	0.3	1610	12.9
CNC(=O)[C@@H](NC(=O)[C@H](c1ccccc1)[C@H](CO)C(=O)NO)C(C)(C)C	13.2	3.5	4.8	928	4.9

The next lines start with results.

Ki (Stromelysin-1) [nM]	Ki (Interstitial collagenase) [nM]	Ki [2] [nM]	SMILES	IC50 (Tumor necrosis factor) [nM]	Ki [1] [nM]
15.2	2	0.3	CNC(=O)[C@@H](NC(=O)[C@H](c1ccc(C)cc1)[C@H](CO)C(=O)NO)C(C)(C)C	269	3.8
0.9	1.1	0.5	CNC(=O)[C@@H](NC(=O)[C@H](c1ccc(OC)cc1)[C@H](CO)C(=O)NO)C(C)(C)C	48	0.6

Source: ChEMBL document CHEMBL1135424, “Beta-aryl-succinic acid hydroxamates as dual inhibitors of matrix metalloproteinases and tumor necrosis factor alpha converting enzyme” (J Med Chem, 2002)
